From patent US9926297B2, “Bicyclic AZA compounds as muscarinic M1 receptor and/or M4 receptor agonists” (Heptares Therapeutics Limited, priority 2014, dated 2018)
Like-named read-outs stand apart in the source and are kept apart here.

What was measured:
[1] = molecular target: T1, human muscarinic M4 receptor (Homo sapiens, UniProt P08173); test: Alphascreen Surefire phospho-ERK1/2 functional assay, M4; type: cell-based; settings: for EC50: CHO cells stably expressing human M4, phospho-ERK1/2, * = variable results, read-out: pEC50 M4 (converted); for Emax: CHO
T1 construct: expressed in transfected cells
T1 sequence (P08173 1-479): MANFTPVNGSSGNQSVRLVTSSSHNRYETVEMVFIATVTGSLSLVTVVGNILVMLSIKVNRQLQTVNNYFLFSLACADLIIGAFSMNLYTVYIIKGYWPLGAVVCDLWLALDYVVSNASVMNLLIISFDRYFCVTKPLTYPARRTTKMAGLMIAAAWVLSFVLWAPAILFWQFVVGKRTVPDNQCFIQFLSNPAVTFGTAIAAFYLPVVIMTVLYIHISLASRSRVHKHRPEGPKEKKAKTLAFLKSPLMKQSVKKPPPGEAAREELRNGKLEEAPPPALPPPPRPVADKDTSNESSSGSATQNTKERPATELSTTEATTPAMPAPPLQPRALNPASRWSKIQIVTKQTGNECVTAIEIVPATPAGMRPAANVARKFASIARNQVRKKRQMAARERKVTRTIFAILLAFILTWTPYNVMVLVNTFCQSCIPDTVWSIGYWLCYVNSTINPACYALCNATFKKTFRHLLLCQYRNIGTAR
Experimental: (§1) CHO cells stably expressing the human muscarinic M1, M2, M3 or M4 receptor were plated (25K/well) onto 96-well tissue culture plates in MEM-alpha+10% dialysed FBS. Once adhered, cells were serum-starved overnight. Agonist stimulation was performed by the addition of 5 μL agonist to the cells for 5 min (37° C.). Media was removed and 50 μL of lysis buffer added. After 15 min, a 4 μL sample was transferred to 384-well plate and 7 μL of detection mixture added. Plates were incubated for 2 h with gentle agitation in the dark and then read on a PHERAstar plate reader.
(§2) pEC50 and Emax figures were calculated from the resulting data for each receptor subtype.

[2] = molecular target: human muscarinic M3 receptor (Homo sapiens, UniProt P20309); test: Alphascreen Surefire phospho-ERK1/2 functional assay, M3; settings: for Emax: CHO, read-out: % Emax cf. ACh, M3, CHO cells stably expressing human M3, relative to ACh; for EC50: pEC50 M3, CHO cells stably expressing human M3, phospho-ERK1/2, * = variable results
[3] = molecular target: T2, human muscarinic M2 receptor (Homo sapiens, UniProt P08172); test: Alphascreen Surefire phospho-ERK1/2 functional assay, M2; settings: for Emax: CHO, read-out: % Emax cf. ACh, M2, CHO cells stably expressing human M2, relative to ACh
T2 sequence (P08172 1-466): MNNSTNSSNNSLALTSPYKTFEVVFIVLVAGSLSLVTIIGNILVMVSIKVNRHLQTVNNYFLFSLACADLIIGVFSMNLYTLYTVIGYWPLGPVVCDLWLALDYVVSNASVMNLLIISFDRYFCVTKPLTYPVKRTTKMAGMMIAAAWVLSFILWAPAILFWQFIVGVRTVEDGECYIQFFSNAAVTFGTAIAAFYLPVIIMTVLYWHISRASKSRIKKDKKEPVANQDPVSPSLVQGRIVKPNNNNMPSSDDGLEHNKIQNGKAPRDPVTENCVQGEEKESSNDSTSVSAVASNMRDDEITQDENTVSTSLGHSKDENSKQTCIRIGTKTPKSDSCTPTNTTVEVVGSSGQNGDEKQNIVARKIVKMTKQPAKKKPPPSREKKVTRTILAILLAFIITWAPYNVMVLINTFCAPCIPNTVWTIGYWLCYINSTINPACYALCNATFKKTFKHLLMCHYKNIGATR

[4] = molecular target: T3, human muscarinic M1 receptor (Homo sapiens, UniProt P11229); test: Alphascreen Surefire phospho-ERK1/2 functional assay, M1; type: cell-based; settings: for EC50: CHO cells stably expressing human M1, phospho-ERK1/2, * = variable results, read-out: pEC50 M1 (converted); for Emax: CHO
T3 sequence (P11229 1-460): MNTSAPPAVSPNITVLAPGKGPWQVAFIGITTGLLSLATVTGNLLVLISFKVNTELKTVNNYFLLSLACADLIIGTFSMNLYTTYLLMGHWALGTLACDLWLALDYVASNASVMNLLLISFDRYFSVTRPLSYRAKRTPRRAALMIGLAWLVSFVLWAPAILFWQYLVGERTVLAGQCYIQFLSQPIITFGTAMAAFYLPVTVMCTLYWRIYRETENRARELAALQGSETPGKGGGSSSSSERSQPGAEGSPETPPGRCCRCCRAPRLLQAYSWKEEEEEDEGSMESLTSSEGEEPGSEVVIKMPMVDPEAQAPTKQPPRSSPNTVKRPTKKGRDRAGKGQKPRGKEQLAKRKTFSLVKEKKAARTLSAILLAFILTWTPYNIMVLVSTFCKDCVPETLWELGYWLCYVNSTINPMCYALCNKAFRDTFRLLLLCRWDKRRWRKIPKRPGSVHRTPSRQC
Experimental: as §1, §2

[5] = read-out: % Emax cf. ACh, M4, CHO cells stably expressing human M4, relative to ACh
[6] = read-out: % Emax cf. ACh, M1, CHO cells stably expressing human M1, relative to ACh

human muscarinic M3 receptor, sequence (P20309 whole entry): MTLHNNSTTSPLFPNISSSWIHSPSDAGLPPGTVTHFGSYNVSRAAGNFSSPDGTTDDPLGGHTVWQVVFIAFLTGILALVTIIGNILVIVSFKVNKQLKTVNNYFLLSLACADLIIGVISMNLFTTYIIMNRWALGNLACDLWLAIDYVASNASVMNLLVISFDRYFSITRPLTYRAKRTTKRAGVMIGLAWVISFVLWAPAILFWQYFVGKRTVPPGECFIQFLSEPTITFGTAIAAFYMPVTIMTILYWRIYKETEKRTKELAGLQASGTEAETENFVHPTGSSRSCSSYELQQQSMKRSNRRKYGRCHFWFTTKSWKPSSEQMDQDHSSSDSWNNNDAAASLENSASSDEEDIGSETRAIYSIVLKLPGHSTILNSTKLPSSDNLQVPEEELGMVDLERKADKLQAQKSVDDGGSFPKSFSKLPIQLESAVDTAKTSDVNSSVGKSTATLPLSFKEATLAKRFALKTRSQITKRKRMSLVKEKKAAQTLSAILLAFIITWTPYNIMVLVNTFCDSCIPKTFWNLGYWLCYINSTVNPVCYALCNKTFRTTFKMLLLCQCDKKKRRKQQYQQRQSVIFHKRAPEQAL

Compound	EC50 [1] [nM]	Emax [1, 5] [%]	Emax [2] [%]	EC50 [2] [nM]	EC50 [3] [nM]	Emax [3] [%]	EC50 [4] [nM]	Emax [4, 6] [%]	Emax ([1]; read-out: % Emax cf. ACh, M4) [%]	Emax ([4]; read-out: % Emax cf. ACh, M1) [%]
CCOC(=O)N1CCC2(CC(N3CCC(N4CCC(F)(F)C4)CC3)C2)C1 (single isomer, unassigned) [2-100 Isomer 2, ethyl 2-[4-(3,3-difluoropyrrolidin-1-yl)piperidin-1-yl]-6-azaspiro[3.4]octane-6-carboxylate]	200	55	5	> 20000	> 20000	4	> 20000	16		
CCOC(=O)N1CCC2(CC(N3CCC([C@@H]4CCCN4C(=O)CCNC(=O)OCc4ccccc4)CC3)C2)C1 (single isomer, unassigned) [2-65 Isomer 2]	7.94	107	1	> 20000	> 20000	1	158	60		
CCOC(=O)N1CCC2(CC(N3CCC(C4CCCN4C(=O)NOC)CC3)C2)C1 (single isomer, unassigned) [2-24 Isomer 2, ethyl 2-{4-[1-(methoxycarbamoyl)pyrrolidin-2-yl]piperidin-1-yl}-6-azaspiro[3.4]octane-6-carboxylate]	20	121	9	> 20000	> 20000	5	631	37		
COC(=O)N1CCC2(CC(N3CCC([C@@H]4CCCN4c4ccccn4)CC3)C2)C1 (single isomer, unassigned) [2-78 Isomer 2]	126	49	5	> 20000	12600	27	> 20000	11		
CCOC(=O)N1CCC2(CC(N3CCC(N4CC(F)(F)C[C@@H]4CO)CC3)C2)C1 (single isomer, unassigned) [2-107 Isomer 2]	6.31		48	> 20000	> 20000		63.1			
CCOC(=O)N1CCC2(CC(N3CCC([C@@H]4CCCN4C(=O)CO)CC3)C2)C1 (single isomer, unassigned) [2-52 Isomer 2]	20	85	4	> 20000	> 20000	4	631	49		
CCOC(=O)N1CCC2(CC(N3CCC(c4nnc[nH]4)CC3)C2)C1 (single isomer, unassigned) [1-26 Isomer 2, ethyl 2-[4-(4H-1,2,4-triazol-3-yl)piperidin-1-yl]-6-azaspiro[3.4]octane-6-carboxylate]	200	76	53	794	> 20000	99	2510	46		
CCOC(=O)N1CCC2(CC(N3CCC(C4CC(C)CNC4=O)CC3)C2)C1 (single isomer, unassigned) [4-4 Isomer 2, ethyl 2-(5-methyl-2-oxo-3,4′-bipiperidin-1′-yl)-6-azaspiro[3.4]octane-6-carboxylate]	5.01	73	21	> 20000	> 20000	19	31.6	97		
CCOC(=O)N1CCC2(CC(N3CCC(c4ccn[nH]4)CC3)C2)C1 (single isomer, unassigned) [1-18 Isomer 2, ethyl 2-[4-(1H-pyrazol-5-yl)piperidin-1-yl]-6-azaspiro[3.4]octane-6-carboxylate]	50.1	89	56	> 20000	> 20000	3	126	65		
CCOC(=O)N1CCC2(CC(N3CCC(c4nccn4CC#N)CC3)C2)C1 (single isomer, unassigned) [1-52 Isomer 2, ethyl 2-{4-[1-(cyanomethyl)-1H-imidazol-2-yl]piperidin-1-yl}-6-azaspiro[3.4]octane-6-carboxylate]	15.8	106	20	> 20000	> 20000	15	158	102		
CCOC(=O)N1CCC2(CC(N3CCC(C4CCCN4C=O)CC3)C2)C1 (single isomer, unassigned) [2-2 Isomer 2, ethyl 2-[4-(1-formylpyrrolidin-2-yl)piperidin-1-yl]-6-azaspiro[3.4]octane-6-carboxylate]	63.1	79	16	> 20000	> 20000	53	794	39		
CCOC(=O)N1CCC2(CC(N3CCC(c4nc(C(F)(F)F)cn4C)CC3)C2)C1 (single isomer, unassigned) [1-15 Isomer 2, ethyl 2-{4-[1-methyl-4-(trifluoromethyl)-1H-imidazol-2-yl]piperidin-1-yl}-6-azaspiro[3.4]octane-6-carboxylate]			6	> 20000	> 20000	4	100	70		
CCOC(=O)N1CCC2(CC(N3CCC(O)(c4nccn4C)CC3)C2)C1 (single isomer, unassigned) [1-39 Isomer 2, ethyl 2-[4-hydroxy-4-(1-methyl-1H-imidazol-2-yl)piperidin-1-yl]-6-azaspiro[3.4]octane-6-carboxylate]	398						1000		97	49
CCOC(=O)N1CCC2(CC(N3CCC(c4nccn4CCOC)CC3)C2)C1 (single isomer, unassigned) [1-51 Isomer 2, ethyl 2-{4-[1-(2-methoxyethyl)-1H-imidazol-2-yl]piperidin-1-yl}-6-azaspiro[3.4]octane-6-carboxylate]	158	106					1260	74		
CCOC(=O)N1CCC2(CC(N3CCC(c4nnco4)CC3)C2)C1 (single isomer, unassigned) [1-28 Isomer 2, ethyl 2-[4-(1,3,4-oxadiazol-2-yl)piperidin-1-yl]-6-azaspiro[3.4]octane-6-carboxylate]	501	60					2000	57		
CCOC(=O)N1CCC2(CC(N3CCC(N4CCC[C@@H]4c4cccs4)CC3)C2)C1 (single isomer, unassigned) [2-131 Isomer 2]	158	108					501	61		
CCOC(=O)N1CCC2(CC(N3CCC(N4C(=O)OC[C@@H]4CC)CC3)C2)C1 (single isomer, unassigned) [2-122 Isomer 2]	158	60					1000	59		
COC(=O)N1CCC2(CC(N3CCC(c4ncc(Cl)n4C)CC3)C2)C1 (single isomer, unassigned) [1-13 Isomer 2, methyl 2-[4-(5-chloro-1-methyl-1H-imidazol-2-yl)piperidin-1-yl]-6-azaspiro[3.4]octane-6-carboxylate]	398	86					1580	61		
